Legend:
[1] = system: hES cell derived pancreatic progenitors (PDX1-eGFP); experiment: Immunostaining (C-peptide, Glucagon, GFP) of hES cell derived pancreatic progenitors treated with verteporfin for 5 days; assay type: cell-based, human
From the text: FIG. 7: Treating hES cell derived pancreatic progenitors with verteporfin for 5 days leads to enhanced insulin expression. Stable PDX1-eGFP human ES cells were differentiated to pancreatic progenitor stage and treated with either DMSO (controls) or Verteporfin for 5 days and immuno stained with C-peptide (white), Glucagon (dark grey) and GFP PDX1 (light grey). Verteporfin-treated progenitors show enhanced endocrine/beta cell differentiation and express higher levels of C-peptide, whereas DMSO treated cells express low levels of C-peptide and Glucagon.
(§1) The verteporfin treatment directed the pancreatic progenitors to endocrine lineage differentiation at the expense of acinar lineage.

[2] = system: Wild type C57bl6 mouse pancreatic explants at E11.5; experiment: RT-qPCR of endocrine gene expression in mouse pancreatic explants cultured ex-vivo with Verteporfin; assay type: cell-based; conditions: 1 μg/ml Verteporfin for 72 hours; RT-qPCR after 6 days of culture; fold change relative to Ecad expression
Description: FIG. 4: Inhibition of Yap1 using Verteporfin in wild type mouse pancreatic explants leads to enhanced endocrine differentiation. Wild type C57bl6 mouse pancreatic explants at E11.5 embryonic stages were cultured ex-vivo for initial 24 hrs in normal culture media supplemented with 1 ug/ml Verteporfin for 72 hours and again in normal culture media without Verteporfin for another 48 hours. The explants were analyzed by RT-qPCR for endocrine gene expression after 6 days of culture. […] This ultimately leads to enhanced endocrine differentiation as analysed for Insulin (E) and Glucagon (F) expression. Y axis: relative expression (fold change relative to Ecad expression).
Wild type C57bl6 mouse pancreatic explants at E11.5 embryonic stages were cultured ex-vivo for initial 24 hours in normal culture media supplemented with 1 μg/ml Verteporfin for 72 hours and again in normal culture media without Verteporfin for another 48 hours. The explants were analyzed by RT-qPCR for endocrine gene expression after 6 days of culture. […] Expression of these genes is characteristic of islet cell fate.

[3] = system: hES cell derived pancreatic progenitors (PDX1 eGFP); experiment: qRT PCR analysis of hES cell derived pancreatic progenitors treated with verteporfin for 4 days; assay type: cell-based, human; conditions: 1 μg/ml verteporfin, compared to DMSO treated control cultures
Description: FIG. 5: Inhibition of YAP1 in hES cell derived pancreatic progenitors leads to β-cell differentiation. (A) Outline of the 15 day protocol (modified from Rezania et al, 2010) used to generate pancreatic progenitors from human ES cells. At the end of the protocol the majority of cells express the progenitor markers PDX1 and NKX6.1. The YAP1-TEAD inhibitor Verteporfin (VP) was added to the medium during PE day 4 and the cells were treated for either 4 or 5 days. […] Y axis: relative mRNA expression as fold change.
(§2) We cultured the hES PDX1 GFP cells using a modified protocol from Rezania et al 2010 (see below for the exact protocol, outlined in FIG. 5A) that efficiently generates pancreatic progenitors mostly expressing PDX1, NKX6.1. Briefly, Hues4 hES PDX1 GFP cells were cultured on feeder-free DEF system (““DEF-CS™”, Cellectis stem cells, Cellartis AB”) until full confluency. When full confluency was reached the cells were subjected to differentiation as follows for 5 different stages to obtain insulin producing mature Beta cells.
(§3) Cells were cultured in RPMI medium with 3 μM CHIR99021 (a Wnt activator) for 1 day. During the second day the cells were treated with 100 ng/ml Activin A. For days 3 and 4 the cells were treated with 100 ng/ml Activin A along with 2% (v/v) B27.
(§4) The cultures were exposed to F12 media containing 2% B27, 2 gm/L Sodium bicarbonate along with 0.25 mM Vitamin C and 50 ng/ml FGF7 for two days.
(§5) The cultures were continued for four days in DMEM high glucose media along with 2% B27, 2 g/L Sodium bicarbonate, 0.25 mM Vitamin C, 2 ng/ml FGF7, 0.25 μM Sant1, 100 ng/ml Noggin and 2 μM Retinoic acid.
(§6) Stage 4 cells were cultured for 5 days to obtain PDX1 and NKX6.1 expressing pancreatic progenitor cells by culturing in 2% B27, 2 gm/L Sodium bicarbonate, 0.25 mM Vitamin C, 100 ng/ml Noggin and 500 nM TPB (PKC activator).
(§7) To obtain insulin expressing, MAFA positive mature Beta cells, the cultures were treated with the YAP-TEAD inhibitor Verteporfin at a concentration of 1 μg/ml in Stage 4 medium and cultured for another 4-9 days.
(§8) After culturing the cells for the first 4 stages above (around 15 days), the differentiated hES cells were enriched for PDX1 expression as they expressed GFP. These enriched pancreatic progenitor cultures were treated with the YAP1 -TEAD chemical inhibitor Verteporfin for an additional 4-5 days and checked for gene expression (stage 5). As expected from mouse studies, inhibition of YAP1 activity in the PDX1 enriched cells, using verteporfin after 4 days led to efficient and enhanced endocrine differentiation especially towards insulin producing beta cells at the expense of acinar lineage.

[4] = system: hES cell derived pancreatic progenitors (PDX1 eGFP); experiment: qRT PCR analysis of hES cell derived pancreatic progenitors treated with verteporfin for 5 days; assay type: cell-based, human; conditions: verteporfin 5 days
Description: FIG. 6: Treatment with verteporfin for 5 days leads to enhanced expression of islet specific genes. […] Expression of NKX6.1 is not altered, as it is expressed in both pancreatic progenitors and mature beta-cells. […]
as §2, §3, §4, §5, §6, §7, §8, §1

[5] = system: Stable Pdx1 Gfp human ES cells differentiated to pancreatic progenitor stage; experiment: Immunostaining (c-peptide, Neurogenin3) with confocal microscopy of hES cell derived pancreatic progenitors treated with VP for 5 days; assay type: cell-based; conditions: VP 1 μg/ml, compared to DMSO treated cells
Description: FIG. 8: hES cell derived pancreatic progenitors treated with VP for 5 days show enhanced endocrine differentiation & Insulin expression. Stable Pdx1 Gfp human ES cells were differentiated to pancreatic progenitor stage and then treated with either DMSO (control) or Verteporfin (VP, 1 μg/ml) for 5 additional days. Cultures were immuno-stained with c-peptide (light grey) and Neurogenin3 (dark grey) antibodies and imaged using confocal microscope.
Stable Pdx1 Gfp human ES cells were differentiated to pancreatic progenitor stage and then treated with either DMSO (control) or Verteporfin (VP, 1 μg/ml) for 5 additional days. Cultures were immuno-stained with c-peptide and Neurogenin3 antibodies and imaged using confocal microscopy (FIG. 8).

[6] = verteporfin 5 days vs DMSO, immunostaining
[7] = fold-change versus DMSO control

## Verteporfin
[1]; verteporfin 5 days
  MAFA status of Insulin expressing cells: positive for MAFA
[1]; [6]
  Glucagon protein expression: enhanced
  insulin (c-peptide) protein expression: enhanced
[2]
  Arx expression: significant up-regulation
  Glucagon expression: increased expression
  Insm1 expression: significant up-regulation
  Insulin expression: increased expression
  NeuroD expression: significant up-regulation
  Neurogenin (Ngn3) expression: significant up-regulation
[3]
  CPA1 mRNA expression (exocrine gene): down-regulated
  Glucagon mRNA expression: up-regulation
  ISL-1 mRNA expression: up-regulation
  Insulin mRNA expression: up-regulation
  MAFA mRNA expression: up-regulation
  MAFB mRNA expression: up-regulation
  PTF1a mRNA expression (exocrine gene): down-regulated
[4]; compared to DMSO control cultures
  insulin mRNA levels up-regulated: 5 fold
[4]; compared to day 4 cultures
  INSM1 mRNA expression: up-regulation
  ISL1 mRNA expression: up-regulation
  MAFA mRNA expression: up-regulation
[4]; [7]
  CPA1 mRNA expression (exocrine gene): down-regulation
  Glucagon mRNA expression: down-regulation
  MAFB mRNA expression: up-regulation
  NKX6.1 mRNA expression: not altered
  Neurogenin3 (NGN3) mRNA expression: up-regulation
  PTF1a mRNA expression (exocrine gene): down-regulation
[5]
  Ngn3 level (immunostaining): higher levels
  c-peptide level (immunostaining): higher levels

— patent US20180119105A1, “METHOD FOR PRODUCTION OF INSULIN-PRODUCING CELLS” (University of Copenhagen, priority 2015, published 2018)
